Laboratory results published in ChEMBL document CHEMBL1157539, “Thousands of chemical starting points for antimalarial lead identification” (Nature, 2010).

Test system: Plasmodium falciparum
Assay: GSK_TCMDC: Inhibition of Plasmodium falciparum 3D7 in whole erythrocytes, using parasite LDH activity as an index of growth.
Format: functional, organism-based
Settings: Plasmodium falciparum, 3D7

Compound | XC50 [nM]
CCOC(=O)CCCOc1c(OC)cc(Cc2cnc(N)nc2N)cc1OC | 778
CC1CCCN1Cc1ccc(-c2ccc3c(=O)cc(CCc4cccc(F)c4F)n(CC(=O)N(C)Cc4ccc(-c5ccc(C(F)(F)F)cc5)cc4)c3n2)cc1 (stereo not given) | 823
Oc1cc(NC[C@@H]2CCC[C@@H]2NCc2ccc(Cl)c(Cl)c2)nc2ccccc12 | 602
COc1ccc(Cl)cc1NC(=O)Nc1cc(C)nc2ccccc12 | 287
Cc1cccc2nc(-c3cccc(-c4ccc(NC(=O)c5ccoc5)cc4)c3)[nH]c12 | 703
CC(Cc1ccc(OCCOc2ccccc2)cc1)NCC(O)c1cccc(C(F)(F)F)c1 (stereo not given) | 968
CC(C)c1ccc(-c2nc3cc(Cl)cnc3[nH]2)cc1 | 857
Cc1ccc(C(=O)Nc2cc(S(=O)(=O)N3CCCC3)ccc2OCC(F)(F)F)cc1 | 851
NCc1ccc(-c2ccc3c(N)nccc3c2)cc1 | 885
CCCNC(=O)C1CCN(C(c2ccc(Cl)cc2)c2ccc(Cl)cc2)CC1 | 479
Cn1c(CN2CCC(N3CCc4cc(NC(=O)c5ccco5)ccc43)C2)cc2ccccc21 (stereo not given) | 876
COc1cc2c(cc1OC)CN(c1cc(N)c3cc(OC)c(OC)cc3n1)CC2 | 552
Cc1cc(N[C@@H](Cc2ccccc2)C(=O)Nc2ccccc2)nc(NCCc2ccc(F)cc2)n1 | 860
O=C(Cc1cccs1)NC(CCCN1CCC(Oc2cccc(Cl)c2)CC1)c1ccc(Cl)c(Cl)c1 (stereo not given) | 247
O=C(Nc1ccc(Cl)cc1)OCCn1nnnc1C(c1ccc(Cl)cc1)N1CCOCC1 (stereo not given) | 1180
c1ccc(Oc2ccc(Nc3ccnc4cc(-c5cccc(CNCCN6CCOCC6)c5)ccc34)cc2)cc1 | 391
COc1ccc(CNC2CCN(C)CC2)cc1-c1ccc(S(=O)(=O)NCc2cccnc2)s1 | 835
CCc1ccc(C2CCN(CCCCNC(=O)c3ccc(NC(=O)c4ccc(Cl)cc4)cc3)CC2)c(OC(C)=O)c1 | 145
C[C@H](Cc1ccc(OCCNC[C@H](O)c2cccc(Cl)c2)cc1)NC[C@H](O)c1ccc(Cl)c(Cl)c1 | 958
Nc1ccc(-c2nc3cc(-c4ccc5[nH]c(-c6ccc(N)cc6)nc5c4)ccc3[nH]2)cc1 | 129
FC(F)(F)c1ccc2[nH]c(-c3ccc(-c4cccc(CNCC5CCCO5)c4)s3)nc2c1 (stereo not given) | 367
COc1ccc2c(=NN=Cc3ccc(OC)c4ccccc34)cc(C)[nH]c2c1 | 599
Oc1cccc(-c2nc(-c3ccccc3)c(-c3ccc(Oc4ccc(-c5[nH]c(-c6cccc(O)c6)nc5-c5ccccc5)cc4)cc3)[nH]2)c1 | 855
Cc1ccc(-c2ccc3c(c2)C=C(C(=O)NC2CCN(CCNC(=O)c4cccs4)CC2)CCC3)cc1 | 227

Compound | XC50 [nM]
O=C(NCC1CCN(CC2CCCCC2)C1)c1cc(-c2cccc(C(F)(F)F)c2)cs1 (stereo not given) | 738
COc1ccc(C(=O)N[C@@H](CC(C)C)C(=O)NC2CC[C@@H](C)N(C(=O)Nc3ccc(Cl)cc3)CC2=O)cc1OCCN1CCOCC1 (stereo not given in full) | 152
CN1CCN(Cc2c(O)ccc3c(=O)c(Oc4ccc(C(C)(C)C)cc4)c(C(F)(F)F)oc23)CC1 | 812
CN1CCCc2ccc(NC(=O)C=Cc3ccc(-c4ccc(F)cc4F)o3)cc2C1 | 522
CN1CCCC(CN2CCN(Cc3ccc(-c4ccc(-c5nc6cc(F)ccc6[nH]5)s4)cc3)CC2)C1 (stereo not given) | 127
O=C(Nc1cccc(-c2nn3ncccc3c2-c2ccnc(Nc3cccnc3)n2)c1)c1c(F)cccc1F | 528
O=S(=O)(c1cccc(F)c1)c1ccc(Nc2ncnc3cc(Br)sc23)cc1Cl | 1030
Cc1c(C)c2c(c(C)c1O)CC[C@@](C)(C(=O)NC1CCC(CN3CCC(c4c[nH]c5ccccc45)CC3)CC1)O2 (stereo not given in full) | 965
CN(C)CCCNC(=O)c1ccccc1Sc1ccccc1C#N | 1140
Cc1ccc(Nc2nc(C)cc(NC3CCCC3)n2)cc1 | 292
COc1ccc2nc(N(CCCn3ccnc3)C(=O)C=Cc3cccs3)sc2c1 | 1050
COc1ccc(CCc2ccc(-c3c(C)[nH]c(C)c(Cl)c3=O)cc2)cc1OC | 94
CS(=O)(=O)c1ccc(CCNCc2ccc(-c3ccc(CN(C(=O)C4CC(=O)c5ccccc54)C4Cc5ccccc5C4)cc3)nc2)cc1 (stereo not given) | 858
Clc1ccc(Nc2nc3ccc(Cl)cc3nc2Nc2ccc(Cl)cc2)cc1 | 133
COc1ccc(CN(C2CC2)C(C)C(=O)c2[nH]c(C)c(C(C)=O)c2C)cc1 (stereo not given) | 1590
O=C(/C=C/c1ccc(Cl)c(Cl)c1)NCCCCCN1CCC(NC(=O)Nc2ccc(Cl)c(Cl)c2)CC1 | 892
CN1CCN(C(C(=O)NCc2cc(Cl)cc(Cl)c2)c2ccccc2-c2ccsc2)CC1 (stereo not given) | 936
CCC[C@@H]([C@@H](CC1CCCCC1)C(=O)N[C@H](C(=O)Nc1nccs1)C(C)(C)SCCOCCOCC)N(O)C=O | 82.2
CC(=O)NCCNc1nccc(N2CCc3ncnc(Nc4ccc(OCc5ccccn5)c(Cl)c4)c3C2)n1 | 822
Nc1ccnc2ccc(NC(=O)CCCCCc3ccccc3)cc12 | 860
FC(F)(F)c1ccc2[nH]ccc(=NN=Cc3ccccc3)c2c1 | 1170
Cc1ccc(OCCCCON2C(=N)N=C(N)NC2(C)C)cc1C | 3.2
O=C(CCc1cccnc1)Nc1cccc(-c2ccc(-c3nc4cc(C(F)(F)F)ccc4[nH]3)cc2)c1 | 867
Cc1cc(C(F)(F)F)n2nc(C3CCN(Cc4cc(C)c(O)c(C)c4)C3)cc2n1 (stereo not given) | 758

Compound | XC50 [nM]
O=C(Nc1ccc(Cl)cc1)Nc1cccc(-c2cccc(-c3nc4cc(C(F)(F)F)ccc4[nH]3)c2)c1 | 227
COc1ccc(-c2cnn3ccc(Nc4cc(OC)c(OC)c(OC)c4)nc23)cc1OC | 650
O=C(/C=C/c1ccc(Cl)c(Cl)c1)NCCCCCN1CCC(NC(=O)Nc2cccc(C(F)(F)F)c2)CC1 | 697
N=C(N)NCCN(Cc1ccccc1)c1ccccc1 | 345
O=C(/C=C/c1cccc(OC(F)(F)F)c1)NCCCCCN1CCC(c2c[nH]c3ccccc23)CC1 | 958
Nc1nccc2ccc(-c3ccc4nccn4c3)cc12 | 101
Cc1cc(OCCCN2CCC(NS(=O)(=O)c3ccc(Cl)c(Cl)c3)CC2)c2ccccc2n1 | 897
CCOc1cc(C(=O)NCc2cc(Cl)cc(Cl)c2)ccc1-c1nc2cc(Cl)ccc2[nH]1 | 730
CC(=O)c1ccc(-c2ccc(C(=O)NCCCCN3CCC(c4ccc5c(c4OCC(N)=O)CCCC5)CC3)cc2)s1 | 893
O=C(c1cccc(-c2ccc(-c3nc4cc(C(F)(F)F)ccc4[nH]3)cc2)c1)N1CCCCC1CN1CCC(O)C1 (stereo not given) | 465
O=C(Nc1ccc2c(c1)CCC2)c1ccc(N2CCN(c3ccncc3)CC2)cn1 | 862
NOCCCCOc1ccc(Br)cc1 | 189
CN(C)[C@@H]1C(O)=C(C(N)=O)C(=O)[C@@]2(O)C(O)=C3C(=O)c4c(O)ccc(C#Cc5ccccn5)c4C[C@H]3C[C@@H]12 | 760
CN(C)CCCNCCS(=O)(=O)c1cccc(Nc2ccc(-c3cccc(N(C)C)c3)cn2)c1 | 859
CCCCc1cc(N2CCC(NC(C)=O)C2)nc(Nc2ccc(C)cc2)n1 (stereo not given) | 866
O=C(CCCCCNC(=O)c1ccc(O)c(-c2ccc(Cl)c(Cl)c2)c1)NC1CCCc2ccccc21 (stereo not given) | 759
CC(=O)N(Cc1cccc(-c2cccc(CNCCc3ccccc3)c2)c1)C1CCN(Cc2ccccc2)CC1 | 670
Cc1cccc2nc(-c3cccc(-c4ccc(CN5CCN(CCO)CC5)cc4)c3)[nH]c12 | 823
COc1cccc(C(=O)Nc2ccc(-c3nc4ccccc4[nH]3)cc2)c1 | 802
COc1ccccc1CN1CCC(CNC(=O)c2cc(-c3ccc(N(C)C)cc3)cs2)C1 (stereo not given) | 1270
Nc1c2ccccc2nc2cc(C(F)(F)F)ccc12 | 842
O=C(Nc1ccc(Cl)c(Cl)c1)Nc1ccc(F)c([N+](=O)[O-])c1 | 696
CCOc1ccc(CCC(=O)O)cc1OCC | 1030
Cc1ccc(C(=O)Nc2ccc(Nc3ccnc4cc(-c5nccs5)ccc34)cc2O)cc1 | 47.8

Compound | XC50 [nM]
CC(Cc1ccc(NC(=O)CCNCc2ccccc2)cc1)NCCc1cccc(Cl)c1 (stereo not given) | 147
COc1cccc(CN2CCC(CCOC(c3ccccc3)c3ccccc3)CC2)c1O | 730
O=C(CN1CCN(C(=O)c2ccco2)CC1)Nc1ccc(Br)cc1Cl | 773
CCN(CC)C(=O)C1CCN(C(C(=O)N2CCN(CC(=O)N3CCCC3)CC2)c2cc3ccccc3o2)CC1 (stereo not given) | 707
CN1CCCN(c2ccnc3cc4c(cc23)N(C(=O)c2ccc(Cl)c(Cl)c2)CC4)CC1 | 870
OC(CN1c2ccccc2Sc2ccccc21)CN(C1CCCCC1)C1CCCCC1 (stereo not given) | 651
O=C(Nc1cccc(-c2ccc(-c3nc4cc(C(F)(F)F)ccc4[nH]3)cc2)c1)c1cccnc1 | 572
O=C(c1ccc(-c2ccc(-c3nc4ccccc4[nH]3)s2)cc1)N1CCCCC1CN1CCC(O)C1 (stereo not given) | 1050
CC[C@H]1CN2CC[C@H]1C[C@H]2[C@H](O)c1cc(-c2ccccc2C(F)(F)F)nc2ccc(OC)cc12 | 234
CC(C)c1cc2c(cc1O)C(Cc1ccccc1Cl)N(C)CC2 (stereo not given) | 732
O=C(/C=C/c1ccc(Cl)c(Cl)c1)NCCCCCN1CCCC(CCCNC(=O)Nc2ccc(C(F)(F)F)cc2)C1 (stereo not given) | 525
Cc1[nH]c(C)c(-c2ccc(C#Cc3ccc(F)cc3F)cc2)c(=O)c1Br | 30.1
C=CCn1c(SCc2c(C)noc2C)nc2scc(-c3cccs3)c2c1=O | 1100
COc1c(C2CCN(CCCCNC(=O)c3noc(-c4ccc(C#N)cc4)n3)CC2)ccc2c1CCCC2 | 776
Cc1cccc(-c2c(C)nc(N)nc2N)c1 | 1150
COc1ccc2[nH]c(C)cc(=NN=Cc3cccc(F)c3)c2c1 | 285
CC(=O)Nc1nc(C(=O)Nc2ccc(-c3cccc(-c4nc5cc(F)ccc5[nH]4)c3)cc2)cs1 | 292
CC1(C)N=C(NC(=O)Nc2ccc([N+](=O)[O-])cc2)N=C(N)N1OCc1cccc2ccccc12 | 59.5
Cc1ccc(NC(=O)c2ccc(CN3CCCN(Cc4cccc(Cl)c4)CC3)cc2)cc1C | 1210
CC[C@H]1CN2CC[C@H]1C[C@H]2[C@H](O)c1cc(-c2ccc(F)cc2C)nc2ccc(OC)cc12 | 157
CS(=O)(=O)Nc1ccc2c(C3CCN(CC4CCN(C(=O)/C=C/c5ccc(Cl)c(Cl)c5)CC4)CC3)c[nH]c2c1 | 761
C=C[C@H]1CN2CC[C@H]1C[C@H]2[C@H](O)c1ccnc2ccc(OC)cc12 | 426
COc1ccccc1CCNC(=O)c1cc(Br)cc(N2CCN(c3ccncc3)CC2)c1 | 1270
